Laboratory results published in patent publication EP0935965A1, “ANTIPYLORI AGENT” (TORAY INDUSTRIES, INC., priority 1996, dated 1997).
Where a SMILES comes first, the peptide text is derived from it.

Tested on: acetic acid ulcer
Assay: Healing accelerating action on acetic acid ulcer of rat
Type: in vivo, Sprague Dawle rats
Procedure: 15 Sprague Dawle rats each having a weight of about 220 g were used, and a gastric ulcer was experimentally formed in each of the rats. A gastric ulcer was formed by exposing the gastric anterior wall of each of the rats by ventrotomy under etherization, and injecting 0.03 ml of 20% acetic acid into the submucous layer in the boundary between the fundus glands and the pyloric glands of the gastric anterior wall by a Hamilton microsyringe in accordance with the method of Okabe et al., closing the stomach, and then feeding for 7 days in a normal manner.
On the seventh day, five rats were sacrificially killed, and the stomachs were extracted therefrom. The residual 10 rats were divided into two groups consisting of 5 rats each and used as a control group administered with physiologic saline and an experimental group administered with PR-39.
The rats in the control group and the experimental group were intraperitoneally administered with 1 ml of physiologic saline and 0.8 mg/ml of PR-39, respectively, once a day. After administration of physiologic saline or PR-39 for 7 days, the stomach was extracted from each of the rats on the day after final administration (14 days after acetic acid administration).
In each of the extracted stomachs, the pyloric ring and the esophagogastric junction were clamped, and 10 ml of 70% alcohol was injected into the stomach, followed by fixing. The stomach was cut along the curvatura ventriculi major to expose the gastric mucosal surface, and the gastric ulcer formed was visually observed to measure the surface area thereof.
Successively, a central portion of the gastric ulcer was cut out in parallel to the curvatura ventriculi minor, embedded in paraffin, and then stained with HE to histologically examine the formed gastric ulcer.
The examination terms included the length of each of the gastric ulcer, and the thickness of the granulation of the ulcer bottom thereof.

[1] = 14 days after acetic acid, histological observation, PR-39 0.8 mg/ml intraperitoneally once a day for 7 days

CC[C@H](C)[C@H](NC(=O)[C@H](CCCNC(=N)N)NC(=O)[C@@H]1CCCN1C(=O)[C@@H]1CCCN1C(=O)[C@H](CC(C)C)NC(=O)[C@H](CCCNC(=N)N)NC(=O)[C@@H]1CCCN1C(=O)[C@@H]1CCCN1C(=O)[C@H](Cc1ccccc1)NC(=O)[C@H](Cc1ccccc1)NC(=O)[C@@H]1CCCN1C(=O)[C@@H]1CCCN1C(=O)[C@@H]1CCCN1C(=O)[C@H](CCCNC(=N)N)NC(=O)[C@@H]1CCCN1C(=O)[C@H](CCCNC(=N)N)NC(=O)[C@@H]1CCCN1C(=O)[C@H](CC(C)C)NC(=O)[C@H](Cc1ccc(O)cc1)NC(=O)[C@@H]1CCCN1C(=O)[C@@H]1CCCN1C(=O)[C@H](CCCNC(=N)N)NC(=O)[C@@H]1CCCN1C(=O)[C@H](CCCNC(=N)N)NC(=O)[C@H](CCCNC(=N)N)NC(=O)[C@@H](N)CCCNC(=N)N)C(=O)N1CCC[C@H]1C(=O)N1CCC[C@H]1C(=O)NCC(=O)N[C@@H](Cc1ccccc1)C(=O)N1CCC[C@H]1C(=O)N1CCC[C@H]1C(=O)N[C@@H](CCCNC(=N)N)C(=O)N[C@@H](Cc1ccccc1)C(=O)N1CCC[C@H]1C(=O)N1CCC[C@H]1C(=O)N[C@@H](CCCNC(=N)N)C(=O)N[C@@H](Cc1ccccc1)C(=O)N1CCC[C@H]1C(N)=O [PR-39, proline arginine rich peptide-39] (H-RRRPRPPYLPRPRPPPFFPPRLPPRIPPGFPPRFPPRFP-NH2; N-terminus and C-terminus assumed)
Ulcer surface area (14 days after acetic acid, PR-39 0.8 mg/ml intraperitoneally once a day for 7 days): 2.82 ± 1.96 mm2; average±SEM
visual observation of gastric mucosa (14 days after acetic acid, compared with the control group (physiologic saline)): ulcer scar accompanied with concentration of the mucosal folds of gallbladder was observed
Diameter of ulcer [1]: 1.58 ± 0.49 mm
Thickness of granulation tissue [1]: 1.39 ± 0.59 mm
ulcer area as compared with the control group (PR-39 administered every day in the healing stage (7th to 14th day)): significantly decreased
thickness of granulation at the ulcer bottom (PR-39 administration): significantly decreased
length of an ulcer (histological observation) (PR-39 administration group): significantly decreased
